Measured values from US20200131238A1, “METHOD FOR PROMOTING ADIPOCYTE DIFFERENTIATION AND OBESITY-RELATED DISEASE TREATMENT” (AMERICAN UNIVERSITY, priority 2018, published 2020).

B1: NRG1 EGF-β peptide: recombinant NRG1 EGF-β domain peptide, 65 amino acids, BioLegend Cat # 711104 (protein, listed as Homo sapiens)
chain: SHLVKCAEKEKTFCVNGGECFMVKDLSNPSRYLCKCPNEFTGDRCQNYVMASFYKHLGIEFMEAE

Columns and labels:
NRG1 = NRG1 isoform expression in stem cells after DAC treatment (RT-qPCR); assay type: cell-based, human
Excerpt: A. Microarray data showing that NRG1 is preferentially expressed in clonal cell line AF2, both stem cells and adipocytes. UCP1 is a brown adipose tissue (BAT) marker and UCP2 is a white adipose tissue (WAT) marker. Adiponectin (ADIPOQ) shown as a differentiation control. P-values calculated relative to NRG4 using 1-way ANOVA. Analysis of gene expression in mouse adipose precursor cell lines isolated from inguinal (B) or perigonadal (C) depots of a male mouse. […] NRG, Neuregulin; UCP, uncoupling protein; AdipoQ, adiponectin. Isoform-specific epigenetic induction of NRG1 expression in primary human cells, clonal (D) and raw processed lipoaspirate (E). Expression of NRG1 is induced with demethylating agent decitabine (DAC). Types I-III represent distinct transcriptional start sites within the NRG1 locus and produce different mRNA isoforms (see FIG. 7D for map). The Type III isoform is specifically DAC responsive. P-values derived from Tukey's HSD post-hoc test after ANOVA and are relative to corresponding matched DMSO control. Note Type II isoform expression was not detected in the stem cells.
First, by evaluating gene expression in stem cells immediately after DAC treatments (rather than differentiated cells), we minimized secondary gene expression changes caused by the differentiation process itself. […]

AF2 cells = assay: adipose differentiation assay with AF2 clonal cells; assay type: cell-based, human
Excerpt: Because patient-derived cells, such as ASCs, are highly heterogeneous, it is vital to ensure that the differences in cell behavior are truly fate decisions and not a measure of non-stem cell contamination (perhaps immune cells, fibroblasts, or other cells). We therefore have performed our experiments with clonally-derived cells expanded in the inventor's laboratory. Many of our experiments use a single clonal line isolated from ASC080414A (Zen-Bio, Inc.), called the AF2 line. Clonal isolation has the advantage of minimizing both genetic and epigenetic variance, which enabled us to identify a highly significant signal in our data (FIG. 6E).
First, by evaluating gene expression in stem cells immediately after DAC treatments (rather than differentiated cells), we minimized secondary gene expression changes caused by the differentiation process itself. Second, hypothesizing that the expression of driver genes will more strongly correlate with differentiation efficiency than passenger genes, we obtained the Pearson's correlation between candidate gene expression in stem cells and the relative formation of adipocytes after 14-18 days of adipogenic induction. Third, we used a clonal cell line (AF2) in order to minimize epigenetic variability between cells. […]

Molecule | up-regulation of one NRG1 isoform (Type III) relative to DMSO control (NRG1; 1 μM DAC) | increase of NRG1 Type I isoform (NRG1; DAC vs DMSO) [fold] | differentiation induction by recombinant NRG1 peptide added to culture media (AF2 cells; AF2 clonal cells) | activating dose of NRG1 peptide (AF2 cells; stem cells, FIGS. 7A,B,C) [ng/mL]
Nc1ncn([C@H]2C[C@H](O)[C@@H](CO)O2)c(=O)n1 [DAC, 5-aza-2′-deoxycitidine] | approximately 10 fold | ~2 | – | –
B1 | – | – | able to recapitulate the differentiation induction observed with DAC | 200
